Measurements as given in patent publication US20090312288A1 (TAKEDA PHARMACEUTICAL COMPANY LIMITED, priority 2008, published 2009).

The compounds below were run against Aurora B/INCENP (Homo sapiens, UniProt Q96GD4) (assay: Determination of inhibition of AIK: Aurora B/INCENP direct fluorescence polarization (IMAP) assay). Conditions: 10 uM ATP, 0.8 nM Aurora B/INCENP; values given as bins; read-out: IC50 of Exemplified Compounds Against AIK B.
Chain of Aurora B/INCENP (Q96GD4 whole entry): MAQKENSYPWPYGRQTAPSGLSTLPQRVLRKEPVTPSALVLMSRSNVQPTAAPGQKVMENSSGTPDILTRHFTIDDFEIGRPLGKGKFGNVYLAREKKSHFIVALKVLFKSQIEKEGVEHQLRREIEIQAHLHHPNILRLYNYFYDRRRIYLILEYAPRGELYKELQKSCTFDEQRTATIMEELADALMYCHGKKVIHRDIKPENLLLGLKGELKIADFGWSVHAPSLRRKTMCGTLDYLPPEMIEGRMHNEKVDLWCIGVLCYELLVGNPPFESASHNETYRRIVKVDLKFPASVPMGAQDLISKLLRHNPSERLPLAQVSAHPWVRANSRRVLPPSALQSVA
Chain of Aurora B/INCENP (Q9NQS7 whole entry partner): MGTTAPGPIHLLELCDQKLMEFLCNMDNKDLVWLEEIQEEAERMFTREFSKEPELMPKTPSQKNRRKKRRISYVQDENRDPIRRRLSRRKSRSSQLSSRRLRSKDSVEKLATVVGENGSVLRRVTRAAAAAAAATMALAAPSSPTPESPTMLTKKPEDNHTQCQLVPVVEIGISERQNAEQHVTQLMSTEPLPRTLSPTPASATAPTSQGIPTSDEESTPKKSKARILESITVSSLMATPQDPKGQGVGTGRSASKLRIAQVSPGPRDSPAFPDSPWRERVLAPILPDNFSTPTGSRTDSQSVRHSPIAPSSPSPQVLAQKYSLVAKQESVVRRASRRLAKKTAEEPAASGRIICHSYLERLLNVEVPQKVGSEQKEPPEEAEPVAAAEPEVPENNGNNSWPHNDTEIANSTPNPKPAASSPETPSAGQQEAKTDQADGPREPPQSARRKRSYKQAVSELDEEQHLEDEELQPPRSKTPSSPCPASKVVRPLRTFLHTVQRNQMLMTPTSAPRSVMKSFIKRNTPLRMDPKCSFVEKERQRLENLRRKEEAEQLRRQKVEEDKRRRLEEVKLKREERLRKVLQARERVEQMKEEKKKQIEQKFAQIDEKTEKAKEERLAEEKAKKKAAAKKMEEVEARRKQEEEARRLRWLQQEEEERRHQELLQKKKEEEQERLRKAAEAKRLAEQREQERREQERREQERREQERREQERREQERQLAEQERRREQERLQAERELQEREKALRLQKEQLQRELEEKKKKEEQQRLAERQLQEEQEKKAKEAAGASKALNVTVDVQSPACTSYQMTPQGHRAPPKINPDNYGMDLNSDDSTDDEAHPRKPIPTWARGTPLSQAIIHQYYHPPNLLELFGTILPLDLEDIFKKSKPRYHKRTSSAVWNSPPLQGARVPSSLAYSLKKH
Format: biochemical
An IC50 of 4 to 5.5 nM was found for `CCS(=O)(=O)c1cccc(-c2ccc(O[C@@H](C)CCO)c3[nH]c4ncc(C)cc4c23)c1` [Compound 389, (S)-3-(5-(3-(ethylsulfonyl)phenyl)-3-methyl-9H-pyrido[2,3-b]indol-8-yloxy)butan-1-ol] in this work.
An IC50 of 4 to 5.5 nM was found for `CCS(=O)(=O)c1cccc(-c2ccc(O[C@@H](C)COP(=O)(O)O)c3[nH]c4ncc(C)cc4c23)c1` [Compound 391, (S)-2-(5-(3-(ethylsulfonyl)phenyl)-3-methyl-9H-pyrido[2,3-b]indol-8-yloxy)propyl dihydrogen phosphate] in this work.
For `Cc1cnc2[nH]c3c(OC[C@H](CO)CN(C)C)ccc(-c4cccc(S(=O)(=O)C5CC5)c4)c3c2c1` [Compound 401, (S)-3-(5-(3-(cyclopropylsulfonyl)phenyl)-3-methyl-9H-pyrido[2,3-b]indol-8-yloxy)-2-((dimethylamino)methyl)propan-1-ol], the IC50 was < 4 nM.
For `Cc1cnc2[nH]c3c(OC[C@@H](CO)CN(C)C)ccc(-c4cccc(S(=O)(=O)C5CC5)c4)c3c2c1` [Compound 402, (R)-3-(5-(3-(cyclopropylsulfonyl)phenyl)-3-methyl-9H-pyrido[2,3-b]indol-8-yloxy)-2-((dimethylamino)methyl)propan-1-ol], the IC50 was < 4 nM.
`Cc1cnc2[nH]c3c(O)ccc(-c4cccc(S(=O)(=O)C5CC5)c4)c3c2c1` [Compound 404, 5-(3-(cyclopropylsulfonyl)phenyl)-3-methyl-9H-pyrido[2,3-b]indol-8-ol] was tested, and the IC50 was < 4 nM.
In the case of `CCNCCCOc1ccc(-c2cccc(S(=O)(=O)C3CC3)c2)c2c1[nH]c1ncc(C)cc12` [Compound 407, 3-(5-(3-(cyclopropylsulfonyl)phenyl)-3-methyl-9H-pyrido[2,3-b]indol-8-yloxy)-N-ethylpropan-1-amine], the IC50 is reported as < 4 nM.
In the case of `Cc1cnc2[nH]c3c(OCCCNCCO)ccc(-c4cccc(S(=O)(=O)C5CC5)c4)c3c2c1` [Compound 408, 2-(3-(5-(3-(cyclopropylsulfonyl)phenyl)-3-methyl-9H-pyrido[2,3-b]indol-8-yloxy)propylamino)ethanol], the IC50 is reported as < 4 nM.
For `CCS(=O)(=O)c1cccc(-c2ccc(OCCCn3cncn3)c3[nH]c4ncc(C)cc4c23)c1` [Compound 409, 8-(3-(1H-1,2,4-triazol-1-yl)propoxy)-5-(3-(ethylsulfonyl)phenyl)-3-methyl-9H-pyrido[2,3-b]indole], the IC50 was > 13 nM.
An IC50 of 4 to 5.5 nM was found for `CCS(=O)(=O)c1cccc(-c2ccc(OCc3ccncc3)c3[nH]c4ncc(C)cc4c23)c1` [Compound 411, 5-(3-(ethylsulfonyl)phenyl)-3-methyl-8-(pyridin-4-ylmethoxy)-9H-pyrido[2,3-b]indole] in this work.
An IC50 of 8.6 to 13 nM was found for `CCS(=O)(=O)c1cccc(-c2ccc(OCCCc3cccnc3)c3[nH]c4ncc(C)cc4c23)c1` [Compound 414, 5-(3-(ethylsulfonyl)phenyl)-3-methyl-8-(3-(pyridin-3-yl)propoxy)-9H-pyrido[2,3-b]indole] in this work.
An IC50 of 5.6 to 8.5 nM was found for `CCS(=O)(=O)c1cccc(-c2ccc(OCCCn3cnnc3)c3[nH]c4ncc(C)cc4c23)c1` [Compound 416, 8-(3-(4H-1,2,4-triazol-4-yl)propoxy)-5-(3-(ethylsulfonyl)phenyl)-3-methyl-9H-pyrido[2,3-b]indole] in this work.
In the case of `CCS(=O)(=O)c1cccc(-c2ccc(OCCCn3cccc3)c3[nH]c4ncc(C)cc4c23)c1` [Compound 421, 8-(3-(1H-pyrrol-1-yl)propoxy)-5-(3-(ethylsulfonyl)phenyl)-3-methyl-9H-pyrido[2,3-b]indole], the IC50 is reported as > 13 nM.
An IC50 of 8.6 to 13 nM was found for `CCS(=O)(=O)c1cccc(-c2ccc(OCC3CCCCO3)c3[nH]c4ncc(C)cc4c23)c1` (stereo not drawn) [Compound 423, 5-(3-(ethylsulfonyl)phenyl)-3-methyl-8-((tetrahydro-2H-pyran-2-yl)methoxy)-9H-pyrido[2,3-b]indole] in this work.
An IC50 of 8.6 to 13 nM was found for `CCN(CC)CCCOc1ccc(-c2cccc(S(=O)(=O)CC)c2)c2c1[nH]c1ncc(C)cc12` [Compound 425, N,N-diethyl-3-(5-(3-(ethylsulfonyl)phenyl)-3-methyl-9H-pyrido[2,3-b]indol-8-yloxy)propan-1-amine] in this work.
An IC50 of 5.6 to 8.5 nM was found for `CCS(=O)(=O)c1cccc(-c2ccc(OCCCOC)c3[nH]c4ncc(C)cc4c23)c1` [Compound 427, 5-(3-(ethylsulfonyl)phenyl)-8-(3-methoxypropoxy)-3-methyl-9H-pyrido[2,3-b]indole] in this work.
For `CCS(=O)(=O)c1cccc(-c2ccc(OCc3cccc(F)n3)c3[nH]c4ncc(C)cc4c23)c1` [Compound 433, 5-(3-(ethylsulfonyl)phenyl)-8-((6-fluoropyridin-2-yl)methoxy)-3-methyl-9H-pyrido[2,3-b]indole], the IC50 was < 4 nM.
For `CCS(=O)(=O)c1cccc(-c2ccc(OCCCN3CCOCC3)c3[nH]c4ncc(C)cc4c23)c1` [Compound 440, 4-(3-(5-(3-(ethylsulfonyl)phenyl)-3-methyl-9H-pyrido[2,3-b]indol-8-yloxy)propyl)morpholine], the IC50 was > 13 nM.
In the case of `Cc1cnc2[nH]c3c(OCCCN4CCC(OP(=O)(O)O)CC4)ccc(-c4cccc(S(=O)(=O)C5CC5)c4)c3c2c1` [Compound 444, 1-(3-(5-(3-(cyclopropylsulfonyl)phenyl)-3-methyl-9H-pyrido[2,3-b]indol-8-yloxy)propyl)piperidin-4-yl dihydrogen phosphate], the IC50 is reported as < 4 nM.
In the case of `CCS(=O)(=O)c1cccc(-c2ccc(OCCCN3CCC(COP(=O)(O)O)CC3)c3[nH]c4ncc(C)cc4c23)c1` [Compound 449, (1-(3-(5-(3-(ethylsulfonyl)phenyl)-3-methyl-9H-pyrido[2,3-b]indol-8-yloxy)propyl)piperidin-4-yl)methyl dihydrogen phosphate], the IC50 is reported as < 4 nM.
An IC50 of 8.6 to 13 nM was found for `CCS(=O)(=O)c1cccc(-c2cc(C(=O)NC3CCNCC3)c(C)c3[nH]c4ncc(C)cc4c23)c1` [Compound 451, 5-(3-(ethylsulfonyl)phenyl)-3,8-dimethyl-N-(piperidin-4-yl)-9H-pyrido[2,3-b]indole-7-carboxamide] in this work.
An IC50 of 8.6 to 13 nM was found for `CCS(=O)(=O)c1cccc(-c2cc(C(=O)N3CCC(CCO)CC3)c(C)c3[nH]c4ncc(C)cc4c23)c1` [Compound 454, (5-(3-(ethylsulfonyl)phenyl)-3,8-dimethyl-9H-pyrido[2,3-b]indol-7-yl)(4-(2-hydroxyethyl)piperidin-1-yl)methanone] in this work.
An IC50 of 5.6 to 8.5 nM was found for `CCS(=O)(=O)c1cccc(-c2cc(C(=O)NC3CCN(CCO)CC3)c(C)c3[nH]c4ncc(C)cc4c23)c1` [Compound 456, 5-(3-(ethylsulfonyl)phenyl)-N-(1-(2-hydroxyethyl)piperidin-4-yl)-3,8-dimethyl-9H-pyrido[2,3-b]indole-7-carboxamide] in this work.
An IC50 of 5.6 to 8.5 nM was found for `CCS(=O)(=O)c1cccc(-c2c(Cl)cnc3[nH]c4c(OC)cccc4c23)c1` [Compound 464, 3-chloro-4-(3-(ethylsulfonyl)phenyl)-8-methoxy-9H-pyrido[2,3-b]indole] in this work.
For “(3-chloro-5-(3-(ethylsulfonyl)phenyl)-9H-pyrido[2,3-b]indol-8-ol [Compound 219]”, the IC50 was < 4 nM.
